This is an account of results in ChEMBL document CHEMBL3600314, “Discovery and characterization of a potent and selective EP4 receptor antagonist” (Bioorg Med Chem Lett, 2015).

Molecules are shown by their SMILES. Calls of active or inactive are those of the source. No cut-off for these calls is given here. Some results are limits rather than exact numbers.

The target in data set [1] is T1, Prostaglandin E2 receptor EP4 subtype (Homo sapiens, UniProt P35408). The data set is described as follows: Antagonist activity at EP4 receptor in LPS-stimulated human whole blood assessed as inhibition of PGE2-induced TNF-alpha reduction preincubated for 30 mins followed by PGE2 addition measured after 24 hrs by ELISA.
The target in data set [2] is T1, Prostaglandin E2 receptor EP4 subtype. The data set is described as follows: Antagonist activity at recombinant human EP4 receptor expressed in HEK293 cells assessed as inhibition of PGE2-stimulated cAMP accumulation by scintillation proximity assay in presence of [125I]-cAMP. The class given is functional, cell-based. On the technique in general: cAMP levels reflect the balance of adenylyl cyclase and phosphodiesterase activity.

The target is the same in data set [3]. The data set is described as follows: Displacement of [3H]-PGE2 from recombinant human EP4 receptor expressed in HEK293 cell membranes after 90 mins by liquid scintillation counting analysis. On the technique in general: Displacement assays read how much labelled ligand stays bound in the presence of the test substance.
The nature of data set [4]: Solubility of the compound in FedSIF. The class given is physicochemical. The following applies: FeSSIF.
Data set [5] can be described thus: Tmax in Beagle dog at 10 mg/kg, po. The format is ADME, organism-based, Canis lupus familiaris. The following applies: in vivo.
Data set [6] deals with Beta-2 adrenergic receptor (Homo sapiens) (UniProt P07550). The data set is described as follows: Inhibition of human adrenergic beta2 receptor at 10 uM relative to control.
For data set [7], the target named is L-type calcium channel dihydropyridine binding site (Homo sapiens, UniProt O60840+Q01668+Q13698+Q13936). The data set is described as follows: Inhibition of L-type calcium channel dihydropyridine binding site (unknown origin) at 10 uM relative to control. The class given is protein assay.
Data set [8] deals with T2, Prostaglandin E2 receptor EP2 subtype (Homo sapiens, UniProt P43116). The data set is described as follows: Antagonist activity at recombinant human EP2 receptor expressed in CHO cells assessed as inhibition of PGE2-stimulated cAMP accumulation at 1 uM by scintillation proximity assay in presence of [125I]-cAMP. The class given is functional, cell-based.
The target in data set [9] is 5-hydroxytryptamine receptor 2B (Homo sapiens) (UniProt P41595). The data set is described as follows: Inhibition of human 5-HT2B receptor at 10 uM relative to control.
Data set [10] addresses D(2) dopamine receptor (Homo sapiens) (UniProt P14416). The data set is described as follows: Inhibition of human dopamine D2S receptor at 10 uM relative to control.
For data set [11], the target named is Adrenergic receptor alpha-1 (Rattus norvegicus) (UniProt P15823+P23944+P43140). Nature of the data set: Inhibition of rat adrenergic alpha1 receptor at 10 uM relative to control.
Data set [12] has as its target Cytochrome P450 2C8 (Homo sapiens, UniProt P10632). Nature of the data set: Inhibition of CYP2C8 (unknown origin). The format is ADME.
Data set [13] addresses Cytochrome P450 3A4 (Homo sapiens, UniProt P08684). The data set is described as follows: Inhibition of CYP3A4 (unknown origin). The class given is ADME.
Data set [14] addresses Muscarinic acetylcholine receptor M2 (Homo sapiens) (UniProt P08172). Nature of the data set: Inhibition of human muscarinic M2 receptor at 10 uM relative to control.
Data set [15] deals with Adrenergic receptor alpha-2 (Rattus norvegicus) (UniProt P22086+P19328+P22909). The data set is described as follows: Inhibition of rat adrenergic alpha2 receptor at 10 uM relative to control.
In data set [16] the target is T2, Prostaglandin E2 receptor EP2 subtype. Nature of the data set: Agonist activity at recombinant human EP2 receptor expressed in CHO cells assessed as induction of cAMP accumulation at 1 uM after 15 mins by scintillation proximity assay in presence of [125I]-cAMP. The class given is functional, cell-based.
The nature of data set [17]: Solubility of the compound in FasSIF. The class given is physicochemical.
The target in data set [18] is Prostaglandin E2 receptor EP3 subtype (Homo sapiens, UniProt P43115). Nature of the data set: Displacement of [3H]-PGE2 from human EP3 receptor by liquid scintillation counting analysis.
Data set [19] addresses Prostaglandin E synthase (Homo sapiens) (UniProt O14684). The data set is described as follows: Inhibition of microsomal PGES-1 (unknown origin) up to 62.5 uM.
Data set [20] concerns the target Beta-1 adrenergic receptor (Homo sapiens) (UniProt P08588). The data set is described as follows: Inhibition of human adrenergic beta1 receptor at 10 uM relative to control.
Data set [21] addresses Adenosine receptor A3 (Homo sapiens) (UniProt P0DMS8). The data set is described as follows: Inhibition of human adenosine A3 receptor at 10 uM relative to control.
The nature of data set [22]: Clearance in Beagle dog at 10 mg/kg, po and 1 mg/kg, iv. The format is ADME, organism-based, Canis lupus familiaris. Conditions: in vivo.
For data set [23], the species on record is Rattus norvegicus. Nature of the data set: Inhibition of rat chloride channel at 10 uM relative to control.
Data set [24] deals with L-type calcium channel diltiazem binding site (Homo sapiens, UniProt O60840+Q01668+Q13698+Q13936). The data set is described as follows: Inhibition of L-type calcium channel diltiazem binding site (unknown origin) at 10 uM relative to control. The format is protein assay.
Data set [25] has as its target D(1A) dopamine receptor (Homo sapiens) (UniProt P21728). The data set is described as follows: Inhibition of human dopamine D1 receptor at 10 uM relative to control.
The nature of data set [26]: Plasma concentration in Beagle dog at 10 mg/kg, po measured over 12 hrs. The class given is ADME, organism-based, Canis lupus familiaris.
The target of data set [27] is Cytochrome P450 2B6 (Homo sapiens, UniProt P20813). The data set is described as follows: Inhibition of CYP2B6 (unknown origin). The class given is ADME.
Data set [28] concerns the target Cytochrome P450 2C19 (Homo sapiens, UniProt P33261). The data set is described as follows: Inhibition of CYP2C19 (unknown origin). The format is ADME.
The target in data set [29] is Prostaglandin E2 receptor EP1 subtype (Homo sapiens, UniProt P34995). Nature of the data set: Displacement of [3H]-PGE2 from human EP1 receptor by liquid scintillation counting analysis.
The nature of data set [30]: Solubility of the compound in SGF. The format is physicochemical.
Data set [31] has as its target Muscarinic acetylcholine receptor M3 (Homo sapiens) (UniProt P20309). The data set is described as follows: Inhibition of human muscarinic M3 receptor at 10 uM relative to control.
The target in data set [32] is L-type calcium channel verapamil binding site (Homo sapiens, UniProt O60840+Q01668+Q13698+Q13936). The data set is described as follows: Inhibition of L-type calcium channel verapamil binding site (unknown origin) at 10 uM relative to control. The class given is protein assay.
Data set [33] addresses Cytochrome P450 2C9 (Homo sapiens, UniProt P11712). Nature of the data set: Inhibition of CYP2C9 (unknown origin). The format is ADME.
Data set [34] deals with Histamine H1 receptor (Homo sapiens) (UniProt P35367). Nature of the data set: Inhibition of human histamine H1 receptor at 10 uM relative to control.
Data set [35] concerns the target Mu-type opioid receptor (Homo sapiens) (UniProt P35372). Nature of the data set: Inhibition of human mu opioid receptor at 10 uM relative to control.
Data set [36] has as its target Cytochrome P450 2D6 (Homo sapiens, UniProt P10635). The data set is described as follows: Inhibition of CYP2D6 (unknown origin). The class given is ADME.
The nature of data set [37]: Oral bioavailability in Beagle dog at 10 mg/kg. The class given is ADME, organism-based, Canis lupus familiaris. The following applies: in vivo.
Data set [38] addresses T2, Prostaglandin E2 receptor EP2 subtype. The data set is described as follows: Displacement of [3H]-PGE2 from human EP2 receptor by liquid scintillation counting analysis.
Data set [39] deals with Sodium-dependent noradrenaline transporter (Homo sapiens) (UniProt P23975). The data set is described as follows: Inhibition of human NE transporter at 10 uM relative to control.
Data set [40] addresses Cytochrome P450 1A2 (Homo sapiens, UniProt P05177). Nature of the data set: Inhibition of CYP1A2 (unknown origin). The class given is ADME.
Data set [41] deals with Voltage-gated inwardly rectifying potassium channel KCNH2 (Homo sapiens, UniProt Q12809). Nature of the data set: Displacement of [3H]-astemizole from human ERG up to 100 uM.
Data set [42] can be described thus: Plasma concentration in Beagle dog at 10 mg/kg, po measured over 24 hrs. The format is ADME, organism-based, Canis lupus familiaris.

T1 sequence (P35408 whole entry): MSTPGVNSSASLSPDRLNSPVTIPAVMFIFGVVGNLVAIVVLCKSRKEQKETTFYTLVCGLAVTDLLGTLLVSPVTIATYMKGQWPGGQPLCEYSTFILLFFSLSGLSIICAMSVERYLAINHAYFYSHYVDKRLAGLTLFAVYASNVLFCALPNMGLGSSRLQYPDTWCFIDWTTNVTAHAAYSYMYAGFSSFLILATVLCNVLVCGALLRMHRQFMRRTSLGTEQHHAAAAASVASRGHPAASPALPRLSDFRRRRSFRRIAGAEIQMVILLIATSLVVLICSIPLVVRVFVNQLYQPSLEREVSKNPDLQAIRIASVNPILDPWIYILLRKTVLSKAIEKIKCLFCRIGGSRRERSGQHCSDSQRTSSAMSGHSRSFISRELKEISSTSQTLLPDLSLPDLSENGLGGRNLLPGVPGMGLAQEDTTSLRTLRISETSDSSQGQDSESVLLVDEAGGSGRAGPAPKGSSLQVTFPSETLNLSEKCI
T2 sequence (P43116 whole entry): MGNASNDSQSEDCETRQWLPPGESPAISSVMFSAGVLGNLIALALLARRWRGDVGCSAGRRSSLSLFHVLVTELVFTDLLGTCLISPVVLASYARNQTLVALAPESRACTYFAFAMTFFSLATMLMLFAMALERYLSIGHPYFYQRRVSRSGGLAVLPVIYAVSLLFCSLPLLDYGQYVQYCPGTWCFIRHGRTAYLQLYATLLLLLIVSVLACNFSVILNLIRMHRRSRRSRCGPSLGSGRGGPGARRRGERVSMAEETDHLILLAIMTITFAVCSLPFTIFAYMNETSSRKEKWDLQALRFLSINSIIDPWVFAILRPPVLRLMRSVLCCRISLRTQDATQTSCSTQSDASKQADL
Prostaglandin E2 receptor EP1 subtype, sequence (P34995 whole entry): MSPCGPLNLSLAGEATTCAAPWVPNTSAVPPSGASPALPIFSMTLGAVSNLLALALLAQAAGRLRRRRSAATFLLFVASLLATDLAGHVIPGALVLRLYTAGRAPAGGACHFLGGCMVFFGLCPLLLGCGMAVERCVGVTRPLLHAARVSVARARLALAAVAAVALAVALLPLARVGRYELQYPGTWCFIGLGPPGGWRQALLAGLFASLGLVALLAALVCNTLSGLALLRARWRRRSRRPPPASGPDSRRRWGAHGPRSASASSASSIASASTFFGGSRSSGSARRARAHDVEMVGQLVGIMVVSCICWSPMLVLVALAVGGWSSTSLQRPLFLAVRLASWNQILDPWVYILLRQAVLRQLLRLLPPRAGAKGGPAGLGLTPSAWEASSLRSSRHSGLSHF
Prostaglandin E2 receptor EP3 subtype, sequence (P43115 whole entry): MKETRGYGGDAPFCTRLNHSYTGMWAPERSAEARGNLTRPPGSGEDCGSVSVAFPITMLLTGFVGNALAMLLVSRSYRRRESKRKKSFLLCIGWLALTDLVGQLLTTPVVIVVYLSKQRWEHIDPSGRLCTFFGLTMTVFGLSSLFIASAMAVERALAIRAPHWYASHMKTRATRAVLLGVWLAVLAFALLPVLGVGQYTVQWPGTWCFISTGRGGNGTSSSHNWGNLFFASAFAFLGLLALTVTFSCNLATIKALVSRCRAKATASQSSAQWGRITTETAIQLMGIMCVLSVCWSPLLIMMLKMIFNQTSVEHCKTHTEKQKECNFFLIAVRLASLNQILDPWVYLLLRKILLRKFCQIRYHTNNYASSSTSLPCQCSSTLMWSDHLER
Muscarinic acetylcholine receptor M2 (Homo sapiens), sequence (P08172 whole entry): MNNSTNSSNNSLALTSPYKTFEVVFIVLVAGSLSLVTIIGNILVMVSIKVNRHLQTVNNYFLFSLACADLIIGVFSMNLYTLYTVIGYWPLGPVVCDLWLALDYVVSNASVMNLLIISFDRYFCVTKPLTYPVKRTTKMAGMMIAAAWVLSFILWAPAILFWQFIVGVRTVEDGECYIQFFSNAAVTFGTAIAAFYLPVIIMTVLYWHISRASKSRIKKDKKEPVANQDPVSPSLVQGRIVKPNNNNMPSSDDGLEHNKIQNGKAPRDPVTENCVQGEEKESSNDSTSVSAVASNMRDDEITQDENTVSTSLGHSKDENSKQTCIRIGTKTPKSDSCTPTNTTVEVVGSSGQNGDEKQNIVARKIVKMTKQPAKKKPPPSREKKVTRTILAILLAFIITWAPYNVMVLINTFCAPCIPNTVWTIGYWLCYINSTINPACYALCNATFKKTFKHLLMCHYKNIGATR
D(1A) dopamine receptor (Homo sapiens), sequence (P21728 whole entry): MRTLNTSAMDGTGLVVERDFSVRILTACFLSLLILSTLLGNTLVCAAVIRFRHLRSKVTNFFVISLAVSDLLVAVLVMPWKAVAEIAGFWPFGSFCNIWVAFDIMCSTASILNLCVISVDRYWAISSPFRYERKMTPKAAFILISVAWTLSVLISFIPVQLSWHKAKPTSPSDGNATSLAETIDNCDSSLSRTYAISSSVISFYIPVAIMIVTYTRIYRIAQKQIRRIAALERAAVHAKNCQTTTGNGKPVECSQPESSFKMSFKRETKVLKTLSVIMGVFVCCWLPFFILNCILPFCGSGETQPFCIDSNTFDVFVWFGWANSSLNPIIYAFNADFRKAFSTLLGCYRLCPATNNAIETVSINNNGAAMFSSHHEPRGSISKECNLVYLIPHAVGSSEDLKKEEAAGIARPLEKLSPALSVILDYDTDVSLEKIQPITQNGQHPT
Cytochrome P450 2C9, sequence (P11712 whole entry): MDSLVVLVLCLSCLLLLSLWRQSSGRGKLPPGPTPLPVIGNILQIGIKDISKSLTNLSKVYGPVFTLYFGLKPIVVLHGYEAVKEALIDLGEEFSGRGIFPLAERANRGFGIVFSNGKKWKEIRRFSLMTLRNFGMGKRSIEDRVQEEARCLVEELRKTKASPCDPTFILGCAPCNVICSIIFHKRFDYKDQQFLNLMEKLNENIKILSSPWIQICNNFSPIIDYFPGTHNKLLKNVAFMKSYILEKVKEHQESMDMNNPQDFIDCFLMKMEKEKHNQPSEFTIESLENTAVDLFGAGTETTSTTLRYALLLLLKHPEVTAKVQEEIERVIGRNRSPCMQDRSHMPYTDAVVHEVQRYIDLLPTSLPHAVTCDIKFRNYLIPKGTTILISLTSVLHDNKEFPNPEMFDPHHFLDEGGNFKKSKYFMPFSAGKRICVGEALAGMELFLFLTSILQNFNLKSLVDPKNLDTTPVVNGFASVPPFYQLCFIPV
5-hydroxytryptamine receptor 2B (Homo sapiens), sequence (P41595 whole entry): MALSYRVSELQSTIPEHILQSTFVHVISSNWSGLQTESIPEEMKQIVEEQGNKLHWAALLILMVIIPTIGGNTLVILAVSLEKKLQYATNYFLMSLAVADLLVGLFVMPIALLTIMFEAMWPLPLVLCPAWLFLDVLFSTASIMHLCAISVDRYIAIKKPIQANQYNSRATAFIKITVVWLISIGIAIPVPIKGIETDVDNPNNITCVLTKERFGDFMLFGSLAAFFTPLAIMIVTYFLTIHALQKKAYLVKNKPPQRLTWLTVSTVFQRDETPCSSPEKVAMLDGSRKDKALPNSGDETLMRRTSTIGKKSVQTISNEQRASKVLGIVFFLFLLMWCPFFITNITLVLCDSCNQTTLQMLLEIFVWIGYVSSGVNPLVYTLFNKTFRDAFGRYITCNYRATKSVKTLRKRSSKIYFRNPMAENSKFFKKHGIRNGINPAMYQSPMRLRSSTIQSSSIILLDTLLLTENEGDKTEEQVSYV
Histamine H1 receptor (Homo sapiens), sequence (P35367 whole entry): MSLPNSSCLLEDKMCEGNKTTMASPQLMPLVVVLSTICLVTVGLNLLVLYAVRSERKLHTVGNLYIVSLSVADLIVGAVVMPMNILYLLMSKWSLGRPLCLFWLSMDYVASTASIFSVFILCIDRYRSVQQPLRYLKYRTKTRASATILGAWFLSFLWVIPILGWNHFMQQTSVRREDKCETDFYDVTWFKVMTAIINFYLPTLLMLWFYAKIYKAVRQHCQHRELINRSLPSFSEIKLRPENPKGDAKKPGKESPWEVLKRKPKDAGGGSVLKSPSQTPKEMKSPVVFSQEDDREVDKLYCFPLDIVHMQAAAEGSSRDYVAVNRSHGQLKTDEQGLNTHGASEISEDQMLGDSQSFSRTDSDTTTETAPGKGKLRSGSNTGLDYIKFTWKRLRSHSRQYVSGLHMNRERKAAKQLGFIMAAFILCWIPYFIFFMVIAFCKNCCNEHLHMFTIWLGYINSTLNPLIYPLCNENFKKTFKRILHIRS
Cytochrome P450 2C19, sequence (P33261 whole entry): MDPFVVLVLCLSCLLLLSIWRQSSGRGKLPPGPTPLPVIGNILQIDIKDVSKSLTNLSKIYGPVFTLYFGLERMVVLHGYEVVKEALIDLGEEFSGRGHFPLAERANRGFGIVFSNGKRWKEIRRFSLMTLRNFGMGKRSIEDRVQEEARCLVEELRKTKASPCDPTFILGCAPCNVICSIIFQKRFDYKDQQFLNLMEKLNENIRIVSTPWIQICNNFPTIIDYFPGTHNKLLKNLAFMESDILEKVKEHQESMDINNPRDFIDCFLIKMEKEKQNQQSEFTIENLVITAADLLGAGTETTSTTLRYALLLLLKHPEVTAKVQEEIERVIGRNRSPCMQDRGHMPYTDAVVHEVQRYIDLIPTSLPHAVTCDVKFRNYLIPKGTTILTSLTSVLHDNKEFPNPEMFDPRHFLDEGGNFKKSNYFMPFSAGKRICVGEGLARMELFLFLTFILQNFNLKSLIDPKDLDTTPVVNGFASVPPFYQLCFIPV
Beta-2 adrenergic receptor (Homo sapiens), sequence (P07550 whole entry, looked up): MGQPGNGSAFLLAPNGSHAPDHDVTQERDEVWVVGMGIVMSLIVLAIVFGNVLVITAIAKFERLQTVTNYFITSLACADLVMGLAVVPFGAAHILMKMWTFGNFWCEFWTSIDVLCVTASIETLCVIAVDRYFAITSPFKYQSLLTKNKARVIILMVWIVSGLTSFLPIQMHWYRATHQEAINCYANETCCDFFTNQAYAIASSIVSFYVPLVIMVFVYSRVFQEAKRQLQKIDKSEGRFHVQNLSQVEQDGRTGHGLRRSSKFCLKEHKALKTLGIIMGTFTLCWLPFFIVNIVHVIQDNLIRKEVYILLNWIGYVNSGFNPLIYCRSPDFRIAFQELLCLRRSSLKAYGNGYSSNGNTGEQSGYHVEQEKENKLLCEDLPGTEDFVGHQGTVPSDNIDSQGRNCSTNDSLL

As for `CC[C@H](NC(=O)[C@H]1CCCCN1CCOc1ccccc1)c1ccc(C(=O)O)cc1`, the results for the IC50 in [1], in data set [2] and in data set [3] were 291 nM, 14.4 nM and 232 nM, respectively. Also, the Ki in [3] is 129 nM.

Take `C[C@H](NC(=O)[C@H]1CCCCN1CCOc1ccc(C#N)cc1)c1ccc(C(=O)O)cc1`: the figures for the 50% inhibitory concentration (IC50) in data set [1], in data set [2] and in data set [3] were 1210 nM, 35.8 nM and 621 nM, respectively. The Ki in data set [3] was 372 nM.

For `O=C(O)c1ccc(CNC(=O)[C@H]2CCCCN2CCOc2ccccc2)cc1`, the figures for the IC50 in [1], in data set [2] and in [3] were 899 nM, 18.1 nM and 203 nM, respectively. The Ki in data set [3] came to 126 nM.

On to `C[C@H](NC(=O)[C@H]1CCCCN1CCOc1ccccc1)c1ccc(C(=O)O)cc1.Cl`, for which the solubility in data set [4] is greater than 2000 µg/mL; in [17], greater than 2000 µg/mL; in data set [30], 1320 µg/mL. Besides, the Tmax in data set [5] was 15 min. Moreover, the inhibition in data set [6] is 2%; in data set [9] it was 10%; in data set [10], 13%; in [11], 1%; in data set [14], -1%; in data set [15] it was -6%. The inhibition in data set [20] is 6%; in data set [21] it was -9%; in data set [23], 6%; in data set [25], -6%; in [31] it was 7%; in data set [34], 7%. The inhibition was 1% in data set [35] and 7% in data set [39]. Further, the values for the inhibition at 10 µM in data set [7], in [24] and in [32] were -60%, -7% and 5%, respectively. Further, in data set [8], the inhibition result is “Active”. The IC50 in data set [12] is greater than 10000 nM; in data set [13], greater than 10000 nM; in data set [18], greater than 25000 nM; in data set [27], greater than 10000 nM; in data set [28] it was greater than 10000 nM; in [29] it was greater than 25000 nM. Moreover, the IC50 is greater than 10000 nM in data set [33], greater than 10000 nM in data set [36], 1630 nM in data set [38] and greater than 10000 nM in [40]. In data set [16], the result was Active. Besides, the Ki in [18] was greater than 12700 nM; in [29], greater than 17500 nM. Moreover, the inhibition entry in data set [19] is “inactive”. The compound also had a clearance in data set [22] of 5.2 mL/min/kg. In [26], the concentration at 12 h was greater than 1000 nM. Moreover, the bioavailability in data set [37] was found to be 81%. The “inhibition (INH)” value in data set [41] is reported as “Not Active”. Besides, in data set [42], the concentration at 24 h is greater than 100 nM.

As to `CCc1nc2c(C)nc(C)cc2n1-c1ccc(CCNC(=O)NS(=O)(=O)c2ccc(C)cc2)cc1` [GRAPIPRANT], the results for the IC50 in data set [1] and in data set [3] were 1610 nM and 689 nM, respectively.

On to `O=C(O)c1ccc(C2(NC(=O)[C@H]3CCCCN3CCOc3ccccc3)CC2)cc1`, for which the concentration for half-maximal inhibition (IC50) worked out at 586 nM in data set [1], 5.42 nM in data set [2] and 77.8 nM in data set [3]. Further, the inhibition constant (Ki) in data set [3] was 44.8 nM.

Take `C[C@H](NC(=O)[C@H]1CCCCN1CCOc1ccc(F)cc1)c1ccc(C(=O)O)cc1`: the IC50 in data set [1] was 121 nM; in data set [2], 2.87 nM; in data set [3] it was 71.8 nM. The Ki in data set [3] was 40.4 nM.

A word on the IC50: it is the midpoint of a concentration-inhibition curve. The Ki is the dissociation constant of the complex between target and ligand, obtained from inhibition or displacement. For orientation: solubility means how much of the substance goes into solution per volume. A lower solubility goes with a poorly soluble substance. One may read the Tmax as the time from dosing to the highest level. Broadly, the inhibition is the relative decrease from the control value, in per cent. What is called bioavailability is dose-corrected exposure relative to a reference, in per cent. Read a low bioavailability as little systemic uptake.
